Test results: patent publication US12692264B2, “Pyrimidine or pyridine derivative, preparation method therefor, and application thereof in pharmacy” (ABBISKO THERAPEUTICS CO., LTD., priority 2021, dated 2026)

Columns and labels:
Format in all cases: cell-based
[1] = target: Ba/F3 EGFR-V769_D770insASV (Homo sapiens, UniProt P00533, DUP767-769, cells depend on it); assay: Cell proliferation study (CellTiter-Glo, 72 hrs), Ba/F3 EGFR-V769_D770insASV; conditions: CTG, * = average of multiple measurements, read-out: Ba/F3 EGFR-V769_D770insASV IC50
Chain of Ba/F3 EGFR-V769_D770insASV (P00533 with tags, fused parts or gaps DUP767-769): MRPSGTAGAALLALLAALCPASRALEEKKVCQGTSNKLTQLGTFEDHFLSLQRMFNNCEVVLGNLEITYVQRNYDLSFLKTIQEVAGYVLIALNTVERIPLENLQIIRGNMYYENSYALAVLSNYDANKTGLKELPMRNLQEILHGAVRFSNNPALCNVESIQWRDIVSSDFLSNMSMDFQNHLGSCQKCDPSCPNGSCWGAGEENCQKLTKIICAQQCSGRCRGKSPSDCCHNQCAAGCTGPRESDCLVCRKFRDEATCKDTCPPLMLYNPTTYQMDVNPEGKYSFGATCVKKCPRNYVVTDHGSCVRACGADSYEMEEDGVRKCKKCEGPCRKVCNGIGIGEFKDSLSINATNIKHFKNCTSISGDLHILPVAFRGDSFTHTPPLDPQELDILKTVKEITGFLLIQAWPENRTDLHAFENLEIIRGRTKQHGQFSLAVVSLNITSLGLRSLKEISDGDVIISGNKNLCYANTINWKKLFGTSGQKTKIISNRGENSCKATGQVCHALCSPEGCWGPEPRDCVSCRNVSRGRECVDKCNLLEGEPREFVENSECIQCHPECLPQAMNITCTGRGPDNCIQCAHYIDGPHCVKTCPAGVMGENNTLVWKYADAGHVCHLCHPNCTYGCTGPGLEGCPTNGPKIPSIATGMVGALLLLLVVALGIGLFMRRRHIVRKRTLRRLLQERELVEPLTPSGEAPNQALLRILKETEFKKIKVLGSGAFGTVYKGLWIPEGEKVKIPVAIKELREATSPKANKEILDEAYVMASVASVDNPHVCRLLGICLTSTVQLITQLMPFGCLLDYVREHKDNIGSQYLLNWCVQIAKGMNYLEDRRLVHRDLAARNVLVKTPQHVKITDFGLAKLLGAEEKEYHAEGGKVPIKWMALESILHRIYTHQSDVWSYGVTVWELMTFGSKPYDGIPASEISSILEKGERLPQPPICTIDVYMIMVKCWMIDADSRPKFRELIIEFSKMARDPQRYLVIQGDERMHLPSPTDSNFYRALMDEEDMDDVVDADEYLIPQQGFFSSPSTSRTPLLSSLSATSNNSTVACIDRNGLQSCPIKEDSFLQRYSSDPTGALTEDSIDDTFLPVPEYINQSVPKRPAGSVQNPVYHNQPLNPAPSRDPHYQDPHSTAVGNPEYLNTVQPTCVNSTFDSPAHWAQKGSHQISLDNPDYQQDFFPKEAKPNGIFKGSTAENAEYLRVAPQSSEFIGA
Procedure: (§1) (I) Reagents and Materials
(§2) • Fetal bovine serum FBS (GBICO, Cat #10099-141); • CellTiter-Glo® luminescent cell viability assay kit (Promega, Cat #G7572); • Black transparent flat-bottom 96-well plate (Corning®, Cat #3603). (II) Instruments • SpectraMax multi-label microplate reader MD, 2104-0010A; • Carbon dioxide incubator, Thermo Scientific 3100 series; • Biological safety cabinet, Thermo Scientific, 1300 series model A2; • Inverted microscope, Olympus, CKX41SF; • Siemens refrigerator KK25E76T1. (III) Cell Lines and Culture Conditions
(§3) (IV) Experimental Procedures 1. Cell Culture and Inoculation: • (1) Cells in the logarithmic growth phase were harvested and counted using a […]. The cell viability was determined by the trypan blue dye exclusion method to ensure cell viability above 90%. • (2) The cell concentration was adjusted to reach a desired final density; 90 μL of cell suspension was added to a 96-well plate. • (3) The cells were incubated overnight in the 96-well plate at 37° C., 5% CO2 and with 95% humidity. 2. T0 Benchmark Data: • (1) 10 μL of PBS was added to each well of the TO plate containing the cells. • (2) The CTG reagent was thawed and the cell plate was equilibrated to room temperature for 30 min. • (3) An equal volume of CTG solution was added to each well. • (4) The cells were lysed by shaking on an orbital shaker for 5 min. • (5) The cell plate was left to stand at room temperature for 20 min to stabilize the fluorescence signal. • (6) The fluorescence signal values of TO were read. 3. Dilution and Addition of Compounds • (1) According to the compound information table, a corresponding volume of DMSO was added to the corresponding compound powder to prepare a 10 mM stock solution. • (2) A 1000-fold, 3.16-fold-diluted compound solution was prepared. • (3) The 1000× diluted compound solution was diluted 100-fold with PBS to prepare a 10-fold compound solution with a maximum concentration of 10 μM, including 9 concentrations, with 3.16-fold dilution, and 10 μL of the medicament solution was added to each well of the 96-well plate to seed the cells. Triplicate wells were set for each compound concentration, with a final concentration of DMSO being 0.1%. • (4) The cells were placed in the 96-well plate containing the medicament at 37° C., 5% CO2 and with 95% humidity, and cultured for 72 hrs before CTG analysis. 4. Fluorescence Signal Reading • (1) The CTG reagent was thawed and the cell plate was equilibrated to room temperature for 30 min. • (2) An equal volume of CTG solution was added to each well. • (3) The cells were lysed by shaking on an orbital shaker for 5 min. • (4) The cell plate was left to stand at room temperature for 20 min to stabilize the fluorescence signal. • (5) The fluorescence values were read. 5. Data Processing
(§4) Data were analyzed using GraphPad Prism 7.0 software and fitted data were regressed using non-linear S-curves to obtain dose-response curves from which IC50 values (in nM) were calculated.

[2] = target: Ba/F3 EGFR-D770-N771ins_SVD (Homo sapiens, UniProt P00533, DUP768-770, cells depend on it); assay: Cell proliferation study (CellTiter-Glo, 72 hrs), Ba/F3 EGFR-D770-N771ins_SVD; conditions: CTG, * = average of multiple measurements, read-out: Ba/F3 EGFR-D770-N771ins_SVD IC50
Chain of Ba/F3 EGFR-D770-N771ins_SVD (P00533 with tags, fused parts or gaps DUP768-770): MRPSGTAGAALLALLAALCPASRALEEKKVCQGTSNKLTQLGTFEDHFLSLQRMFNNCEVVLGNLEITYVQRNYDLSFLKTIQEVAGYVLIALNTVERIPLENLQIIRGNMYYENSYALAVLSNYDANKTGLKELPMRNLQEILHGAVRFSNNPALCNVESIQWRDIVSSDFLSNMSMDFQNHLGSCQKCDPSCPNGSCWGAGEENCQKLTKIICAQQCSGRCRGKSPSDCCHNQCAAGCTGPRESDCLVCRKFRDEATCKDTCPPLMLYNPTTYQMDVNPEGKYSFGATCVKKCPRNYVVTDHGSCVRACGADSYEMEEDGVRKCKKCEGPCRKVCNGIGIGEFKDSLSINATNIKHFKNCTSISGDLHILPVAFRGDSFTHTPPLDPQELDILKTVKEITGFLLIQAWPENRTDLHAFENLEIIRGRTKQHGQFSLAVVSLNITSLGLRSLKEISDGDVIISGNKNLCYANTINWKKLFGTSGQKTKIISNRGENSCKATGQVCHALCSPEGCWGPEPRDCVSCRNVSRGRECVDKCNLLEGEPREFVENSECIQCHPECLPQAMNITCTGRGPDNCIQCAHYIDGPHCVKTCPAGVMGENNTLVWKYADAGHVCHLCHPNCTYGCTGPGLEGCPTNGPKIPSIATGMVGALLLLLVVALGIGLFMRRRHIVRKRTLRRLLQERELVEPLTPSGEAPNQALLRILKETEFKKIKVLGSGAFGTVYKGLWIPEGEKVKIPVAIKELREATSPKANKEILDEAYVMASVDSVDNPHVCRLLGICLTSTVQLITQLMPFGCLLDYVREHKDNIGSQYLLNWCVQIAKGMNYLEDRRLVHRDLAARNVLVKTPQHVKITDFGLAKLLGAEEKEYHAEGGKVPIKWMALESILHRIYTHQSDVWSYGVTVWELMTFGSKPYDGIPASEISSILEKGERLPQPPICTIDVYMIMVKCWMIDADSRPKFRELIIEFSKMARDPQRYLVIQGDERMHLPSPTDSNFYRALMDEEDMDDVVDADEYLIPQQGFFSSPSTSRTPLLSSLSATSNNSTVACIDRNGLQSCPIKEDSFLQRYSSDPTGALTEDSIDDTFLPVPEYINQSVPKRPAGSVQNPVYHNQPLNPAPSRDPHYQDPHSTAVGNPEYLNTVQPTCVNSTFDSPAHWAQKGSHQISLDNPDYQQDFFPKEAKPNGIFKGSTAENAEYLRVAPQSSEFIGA
Procedure: as §1, §2, §3, §4

A431 (EGFR-WT) = assay: Cell proliferation study (CellTiter-Glo, 72 hrs), A431; conditions: Homo sapiens, A-431, A431 cells, CTG, * = average of multiple measurements
Procedure: as §1, §2, §3, §4

| Structure (SMILES) | GI50 [1] | GI50 [2] | IC50 (A431 (EGFR-WT)) |
| --- | --- | --- | --- |
| [2H]C([2H])([2H])N(CCN(C([2H])([2H])[2H])C([2H])([2H])[2H])c1cc(OC)c(Nc2ncc(C(=O)OC(C)C)c(N3CC4(CC4)c4nc(C)ccc43)n2)cc1NC(=O)C=C [Example 69, isopropyl 2-((5-acrylamido-4-((2-(bis(methyl-d3)amino)ethyl)(methyl-d3)amino)-2-methoxyphenyl)amino)-4-(5′-methylspiro(cyclopropane-1,3′-pyrrolo[3,2-b]pyridin)-1′(2′H)-yl)pyrimidine-5-carboxylate] | 35.2 nM | 26.9 nM |  |
| [2H]C([2H])([2H])Oc1cc(N(C)CCN(C)C)c(NC(=O)C=C)cc1Nc1ncc(C(=O)OC(C)C)c(N2CC(C)(C)c3nc(C)ccc32)n1 [Example 27, isopropyl 2-((5-acrylamido-4-((2-(dimethylami-no)ethyl)(methyl)amino)-2-(methoxy-d3)phenyl)amino)-4-(3,3,5-trimethyl-2,3-dihydro-1H-pyrrolo[3,2-b]pyridin-1-yl)pyrimidine-5-carboxylate] |  | 14.1 nM | 580 nM |
| C=CC(=O)Nc1cc(Nc2ncc(C(=O)OC(C)C)c(N3CC(C)(C)c4nc(C)ccc43)n2)c(OC)cc1N(C)C[C@@H]1CCCN1C [Example 41, isopropyl (S)-2-((5-acrylamido-2-methoxy-4-(methyl((1-methylpyrrolidin-2-yl)methyl)amino)phenyl)amino)-4-(3,3,5-trimethyl-2,3-dihydro-1H-pyrrolo[3,2-b]pyridin-1-yl)pyrimidine-5-carboxylate] |  | 36.3 nM | 213 nM |
| C=CC(=O)Nc1cc(Nc2ncc(C(=O)OC(C)C)c(N3CC(C)(C)c4nc(C)ccc43)n2)c(OC(C)C)cc1N(C)CCN(C)C [Example 28, isopropyl 2-((5-acrylamido-4-((2-(dimethylami-no)ethyl)(methyl)amino)-2-isopropoxy-phenyl)amino)-4-(3,3,5-trimethyl-2,3-dihydro-1H-pyrrolo[3,2-b]pyridin-1-yl)pyrimidine-5-carboxylate] |  | 204 nM |  |
| C=CC(=O)Nc1cc(Nc2ncc(C(=O)OC(C)C)c(N3CC(C)(C)c4nc(C)ccc43)n2)c(OC)nc1N1CC[C@@H](N(C)C)C1 [Example 35, isopropyl (R)-2-((5-acrylamido-6-(3-(dimethyl-amino)pyrrolidin-1-yl)-2-methoxy-pyridin-3-yl)amino)-4-(3,3,5-trimethyl-2,3-dihydro-1H-pyrrolo[3,2-b]pyridin-1-yl)pyrimidine-5-carboxylate] |  | 36 nM | 1070 nM |
| C=CC(=O)Nc1cc(Nc2ncc(C(=O)OC(C)C)c(N3CC(C)(C)c4nc(N5CCC5)ccc43)n2)c(OC)cc1N(C)CCN(C)C [Example 38, isopropyl 2-((5-acrylamido-4-((2-(dimethylami-no)ethyl)(methyl)amino)-2-methoxy-phenyl)amino)-4-(5-(azetidin-1-yl)-3,3-dimethyl-2,3-dihydro-1H-pyrrolo[3,2-b]pyridin-1-yl)pyrimidine-5-carboxylate] |  | 339 nM |  |
| C=CC(=O)Nc1cc(Nc2ncc(C(=O)OC(C)C)c(N3CC(C)(C)c4nc(C)ccc43)n2)c(OCC)cc1N(C)CCN(C)C [Example 37, isopropyl 2-((5-acrylamido-4-((2-(dimethylami-no)ethyl)(methyl)amino)-2-ethoxy-phenyl)amino)-4-(3,3,5-trimethyl-2,3-dihydro-1H-pyrrolo[3,2-b]pyridin-1-yl)pyrimidine-5-carboxylate] |  | 72.9 nM |  |
| C=CC(=O)Nc1cc(Nc2ncc(C(=O)OC(C)C)c(N3CC(C)(C)c4nc(C(=C)C)ccc43)n2)c(OC)cc1N(C)CCN(C)C [Example 14, isopropyl 2-((5-acrylamido-4-((2-(dimethylami-no)ethyl)(methyl)amino)-2-methoxy-phenyl)amino)-4-(3,3-dimethyl-5-(prop-1-en-2-yl)-2,3-dihydro-1H-pyrrolo[3,2-b]pyridin-1-yl)pyrimidine-5-carboxylate] |  | 39 nM |  |
| C=CC(=O)Nc1cc(Nc2ncc(C(=O)OC(C)C)c(N3CC(C)(C)c4nc(C5CC5)ccc43)n2)c(OC)cc1N(C)CCN(C)C [Example 4, isopropyl 2-((5-acrylamido-4-((2-(dimethylami-no)ethyl)(methyl)amino)-2-methoxy-phenyl)amino)-4-(5-cyclopropyl-3,3-dimethyl-2,3-dihydro-1H-pyrrolo[3,2-b]pyridin-1-yl)pyrimidine-5-carboxylate] |  | 59.5 nM | 163 nM |
| C=CC(=O)Nc1cc(Nc2ncc(C(=O)OC(C)C)c(N3CC(C)(C)c4cc(F)c(F)cc43)n2)c(OC)cc1N1CC[C@@H](N(C)C)C1 [Example 94, isopropyl (R)-2-((5-acrylamido-4-(3-(dimethyl-amino)pyrrolidin-1-yl)-2-methoxy-phenyl)amino)-4-(5,6-difluoro-3,3-dimethylindolin-1-yl)pyrimidine-5-carboxylate] |  | 60 nM |  |
| C=CC(=O)Nc1cc(Nc2ncc(C(=O)OC(C)C)c(N3CC4(CC(F)(F)C4)c4nc(C)ccc43)n2)c(OC)cc1N(C)CCN(C)C [Example 24, isopropyl 2-((5-acrylamido-4-((2-(dimethylami-no)ethyl)(methyl)amino)-2-methoxy-phenyl)amino)-4-(3,3-difluoro-5′-methylspiro(cyclobutane-1,3′-pyrrolo[3,2-b]pyridin)-1′(2′H)-yl)pyrimidine-5-carboxylate] |  | 111 nM |  |
| C=CC(=O)Nc1cc(Nc2ncc(C(=O)OC(C)C)c(N3CC(C)(C)c4nc(C)ccc43)n2)c(OC)cc1N1CCN(C2CC2)CC1 [Example 39, isopropyl 2-((5-acrylamido-4-(4-cyclopropyl-piperazin-1-yl)-2-methoxy-phenyl)amino)-4-(3,3,5-trimethyl-2,3-dihydro-1H-pyrrolo[3,2-b]pyridin-1-yl)pyrimidine-5-carboxylate] |  | 545 nM |  |
| [2H]C([2H])([2H])N(CCN(C)C)c1cc(OC)c(Nc2ncc(C(=O)OC(C)C)c(N3CC4(CC4)c4nc(C)ccc43)n2)cc1NC(=O)C=C [Example 68, isopropyl 2-((5-acrylamino-4-((2-(dimethylami-no)ethyl)(methyl-d3)amino)-2-methoxyphenyl)amino)-4-(5′-methylspiro(cyclopropane-1,3′-pyrrolo[3,2-b]pyridin)-1′(2′H)-yl)pyrimidine-5-carboxylate] |  | 30.6 nM |  |
| [2H]C1([2H])N(c2nc(Nc3cc(NC(=O)C=C)c(N4CCN(C5CC5)CC4)cc3OC)ncc2C(=O)OC(C)C)c2ccc(C)nc2C1(C)C [Example 53, isopropyl 2-((5-acrylamido-4-(4-cyclopropyl-piperazin-1-yl)-2-methoxy-phenyl)amino)-4-(3,3,5-trimethyl-2,3-dihydro-1H-pyrrolo[3,2-b]pyridin-1-yl-2,2-d2)pyrimidine-5-carboxylate] |  | 552 nM |  |
| C=CC(=O)Nc1cc(Nc2ncc(C(=O)OC(C)C)c(N3CC(C)(C)c4nc(C#N)ccc43)n2)c(OC)cc1N(C)CCN(C)C [Example 23, isopropyl 2-((5-acrylamido-4-((2-(dimethylami-no)ethyl)(methyl)amino)-2-methoxy-phenyl)amino)-4-(5-cyano-3,3-dimethyl-2,3-dihydro-1H-pyrrolo[3,2-b]pyridin-1-yl)pyrimidine-5-carboxylate] |  | 92.2 nM |  |
| C=CC(=O)Nc1cc(Nc2ncc(C(=O)OC(C)C)c(N3CC(C)(C)c4nc(C)ccc43)n2)c(OC)cc1N1CCC[C@@H](N(C)C)C1 [Example 61, isopropyl (R)-2-((5-acrylamido-4-(3-(dimethyl-amino)piperidin-1-yl)-2-methoxy-phenyl)amino)-4-(3,3,5-trimethyl-2,3-dihydro-1H-pyrrolo[3,2-b]pyridin-1-yl)pyrimidine-5-carboxylate] |  | 255 nM |  |
